Data: patent US11583556B2, “Modified cells and methods of therapy” (Regents of the University of Minnesota, priority 2015, dated 2023)

Each substance was assayed on CTLA4 (assay: Validation of gRNAs in HEK293T cells, Surveyor digest and densitometry, CTLA4 site). Details: CTLA4 target gene site, 3 days.
Type: cell-based, human
Experimental: (§1) HEK293T cells were plated out at a density of 1×10^5 cells per well in a 24 well plate. 150 uL of Opti-MEM medium was combined with 1.5 ug of gRNA plasmid, 1.5 ug of Cas9 plasmid. Another 150 uL of Opti-MEM medium was combined with 5 ul of Lipofectamine 2000 Transfection reagent (Invitrogen). The solutions were combined together and incubated for 15 minutes at room temperature. The DNA-lipid complex was added dropwise to wells of the 24 well plate. Cells were incubated for 3 days at 37° C. and genomic DNA was collected using the GeneJET Genomic DNA Purification Kit (Thermo Scientific). Activity of the gRNAs was quantified by a Surveyor Digest, gel electrophoresis, and densitometry (FIG. 60 and FIG. 61) (Guschin, D. Y., et al., “A Rapid and General Assay for Monitoring Endogenous Gene Modification,” Methods in Molecular Biology, 649: 247-256 (2010)).
(§2) The efficiencies of Cas9 in creating double strand break (DSB) with the assistance of different gRNA sequences were listed in Table 7. The percentage numbers in Table 7 indicated the percent of gene modifications in the sample.

| Substance | efficiency of Cas9/gRNA pair in creating double strand break (percent of gene modifications) |
| --- | --- |
| CTLA4 gRNA#3: guide RNA to CTLA4; sense oligo SEQ ID 51 CACCGCTAGATGATTCCATCTGCAC | 39.33% |
| CTLA4 gRNA#6: guide RNA to CTLA4; sense oligo SEQ ID 57 CACCGCTGGCGATGCCTCGGCTGC | 36.93% |
| CTLA4 gRNA#4: guide RNA to CTLA4; sense oligo SEQ ID 53 CACCGAGGTTCACTTGATTTCCAC | 40.13% |
| CTLA4 gRNA#5: guide RNA to CTLA4; sense oligo SEQ ID 55 CACCGCCGCACAGACTTCAGTCACC | 15.90% |
| CTLA4 gRNA#1: guide RNA to CTLA4; sense oligo SEQ ID 47 CACCGCCGGGTGACAGTGCTTCGGC | 40.96% |
| CTLA4 gRNA#2: guide RNA to CTLA4; sense oligo SEQ ID 49 CACCGTGCGGCAACCTACATGATG | 56.10% |

The substances below were run on AAVS1 (assay: Validation of gRNAs in HEK293T cells, Surveyor digest and densitometry, AAVS1 site). Details: AAVS1 target gene site, 3 days.
Type: cell-based, human
Experimental: as §1
(§3) The percentage numbers in Table 7 indicated the percent of gene modifications in the sample.

| Substance | efficiency of Cas9/gRNA pair in creating double strand break (percent of gene modifications) |
| --- | --- |
| AAVS1 gRNA#1: guide RNA to AAVS1; sense oligo SEQ ID 19 CACCGTGGGGGTTAGACCCAATATC | 32.99% |
| AAVS1 gRNA#5: guide RNA to AAVS1; sense oligo SEQ ID 27 CACCGCCGGCCCTGGGAATATAAGG | 27.55% |
| AAVS1 gRNA#6: guide RNA to AAVS1; sense oligo SEQ ID 29 CACCGCGGGCCCCTATGTCCACTTC | 39.62% |
| AAVS1 gRNA#2: guide RNA to AAVS1; sense oligo SEQ ID 21 CACCGACCCCACAGTGGGGCCACTA | 27.10% |

The substances below were run on PD1 (assay: Validation of gRNAs in HEK293T cells, Surveyor digest and densitometry, PD1 site). Details: PD1 target gene site, 3 days.
Type: cell-based, human
Experimental: as §1, §3

| Substance | efficiency of Cas9/gRNA pair in creating double strand break (percent of gene modifications) |
| --- | --- |
| PD1 gRNA#2: guide RNA to PD-1; sense oligo SEQ ID 35 CACCGCCTGCTCGTGGTGACCGAAG | >60% |
| PD1 gRNA#6: guide RNA to PD-1; sense oligo SEQ ID 43 CACCGACGGAAGCGGCAGTCCTGGC | 25.91% |
| PD1 gRNA#4: guide RNA to PD-1; sense oligo SEQ ID 39 CACCGAGGCGGCCAGCTTGTCCGTC | 20.87% |
| PD1 gRNA#1: guide RNA to PD-1; sense oligo SEQ ID 33 CACCGCGGAGAGCTTCGTGCTAAAC | 10.83% |
| PD1 gRNA#5: guide RNA to PD-1; sense oligo SEQ ID 41 CACCGCGTTGGGCAGTTGTGTGACA | 30.60% |

The substances below were run on CCR5 (assay: Validation of gRNAs in HEK293T cells, Surveyor digest and densitometry, CCR5 site). Details: CCR5 target gene site, 3 days.
Type: cell-based, human
Experimental: as §1, §2

| Substance | efficiency of Cas9/gRNA pair in creating double strand break (percent of gene modifications) |
| --- | --- |
| CCR5 gRNA#1: guide RNA to CCR5; sense oligo SEQ ID 61 CACCGACAATGTGTCAACTCTTGAC | 21.47% |
| CCR5 gRNA#4: guide RNA to CCR5; sense oligo SEQ ID 67 CACCGACACAGCATGGACGACAGCC | 45.99% |
| CCR5 gRNA#6: guide RNA to CCR5; sense oligo SEQ ID 71 CACCGTTGTATTTCCAAAGTCCCAC | 33.17% |
| CCR5 gRNA#5: guide RNA to CCR5; sense oligo SEQ ID 69 CACCGATCTGGTAAAGATGATTCC | 36.07% |
| CCR5 gRNA#3: guide RNA to CCR5; sense oligo SEQ ID 65 CACCGGTGACAAGTGTGATCACTT | 55.98% |
| CCR5 gRNA#2: guide RNA to CCR5; sense oligo SEQ ID 63 CACCGTCATCCTCCTGACAATCGAT | >60% |

The substances below were run on HPRT (assay: Validation of gRNAs in HEK293T cells, Surveyor digest and densitometry, HPRT site). Details: HPRT target gene site, 3 days.
Type: cell-based, human
Experimental: as §1, §2

| Substance | efficiency of Cas9/gRNA pair in creating double strand break (percent of gene modifications) |
| --- | --- |
| HPRT gRNA#1: guide RNA to HPRT; sense oligo SEQ ID 5 CACCGCACGTGTGAACCAACCCGCC | 27.85% ^ |
| HPRT gRNA#6: guide RNA to HPRT; sense oligo SEQ ID 15 CACCGGTCTCGAACTCCTGAGCTC | <5% |
| HPRT gRNA#5: guide RNA to HPRT; sense oligo SEQ ID 13 CACCGTGTTTCAATGAGAGCATTAC | <1% |
| HPRT gRNA#3: guide RNA to HPRT; sense oligo SEQ ID 9 CACCGACAAAAAAATTAGCCGGGTG | <1% |
| HPRT gRNA#2: guide RNA to HPRT; sense oligo SEQ ID 7 CACCGAAACAACAGGCCGGGCGGGT | 30.04% ^ |
| HPRT gRNA#4: guide RNA to HPRT; sense oligo SEQ ID 11 CACCGTAAATTTCTCTGATAGACTA | <5% |
